# Test results from patent US7960438B2, “Use of agomelatine in obtaining medicaments intended for the treatment of generalized anxiety disorder” (Les Laboratoires Servier, priority 2006, dated 2011).
# Test system: patients suffering from Generalized Anxiety Disorder
# Experiment: Clinical study versus placebo in Generalized Anxiety Disorder
# Assay type: in vivo
# Protocol: A clinical study versus placebo has been carried out in 121 patients. Those 121 patients have been randomised in two parallel groups and received either agomelatine at 25 mg per day or placebo.
# After treatment for two weeks, and in case of low response, doses have been increased to 50 mg per day in double blind study for patients receiving agomelatine with a IVRS system (Interactive Voice Response System). Treatment for 12 weeks was carried out.
# The efficacy has been appreciated with evaluation tools recommended by the health authorities, such as the Hamilton Anxiety Scale (Hamilton M., J. Neurol. Neurosurg. Psychiat., 1959, 23, 56-62), or the Sheehan Disability Scale (International Clinical Psychopharmacology, 1996, 11, 89-95). The acceptability profile has also been evaluated.
compound,measurement,setting,value
"COc1ccc2cccc(CCNC(C)=O)c2c1 [agomelatine, N-[2-(7-methoxy-1-naphthyl)ethyl]acetamide]",acceptability profile for the patients,"25 mg per day (up to 50 mg per day), 12 weeks",good acceptability profile
same,difference between agomelatine group and placebo group on the total score of the Hamilton Anxiety Scale,"121 patients, 25 mg per day (increased to 50 mg per day in case of low response after two weeks), 12 weeks, p=0.040",−3.28
same,discontinuation syndrome when the treatment was stopped,after stopping 12 weeks treatment,absence of the discontinuation syndrome
